Measurements: the NIST ThermoML archive (doi:10.1021/je900210h)

Conditions: Fluid (supercritical or subcritical phases), Coaxial cylinder method

FCC(F)(F)F [1,1,1,2-tetrafluoroethane]
Conditions	thermal conductivity [W/m/K]
375.18 K, 4340 kPa	0.055
375.18 K, 4942 kPa	0.0559
375.18 K, 5054 kPa	0.0557
375.18 K, 5057 kPa	0.055
375.19 K, 4163 kPa	0.0881
375.19 K, 4379 kPa	0.0546
375.19 K, 4458 kPa	0.0541
375.19 K, 4551 kPa	0.0545
375.19 K, 4557 kPa	0.0538
375.2 K, 4166 kPa	0.0849
375.2 K, 4456 kPa	0.053
375.21 K, 4170 kPa	0.0823
375.21 K, 4171 kPa	0.0814
375.23 K, 4178 kPa	0.0777
375.23 K, 4181 kPa	0.076
375.24 K, 4120 kPa	0.1016
375.24 K, 4189 kPa	0.0731
375.28 K, 4145 kPa	0.0986
375.28 K, 4150 kPa	0.1002
375.28 K, 4156 kPa	0.1002
375.28 K, 4162 kPa	0.0994
375.28 K, 4167 kPa	0.0984
375.28 K, 4208 kPa	0.0667
375.29 K, 4139 kPa	0.0943
375.29 K, 4174 kPa	0.0955
375.3 K, 4089 kPa	0.0573
375.3 K, 4181 kPa	0.0927
375.3 K, 4229 kPa	0.0627
375.31 K, 4189 kPa	0.0889
375.31 K, 4254 kPa	0.0613
375.31 K, 4265 kPa	0.061
375.31 K, 4294 kPa	0.0605
375.31 K, 4307 kPa	0.0603
375.31 K, 4341 kPa	0.06
375.32 K, 4130 kPa	0.0916
375.32 K, 4134 kPa	0.0856
375.32 K, 4197 kPa	0.0848
375.32 K, 4389 kPa	0.0592
375.32 K, 4450 kPa	0.0585
375.32 K, 4490 kPa	0.0588
375.33 K, 4129 kPa	0.087
375.33 K, 4204 kPa	0.0816
375.34 K, 3828 kPa	0.0367
375.34 K, 4085 kPa	0.0517
375.34 K, 4126 kPa	0.0773
375.36 K, 4121 kPa	0.0721
375.36 K, 4216 kPa	0.0746
375.37 K, 4128 kPa	0.0763
375.38 K, 4225 kPa	0.0686
375.39 K, 4235 kPa	0.0668
375.4 K, 4126 kPa	0.0683
375.4 K, 4244 kPa	0.0645
375.42 K, 3349 kPa	0.0298
375.42 K, 4115 kPa	0.0611
375.42 K, 4265 kPa	0.0608
375.43 K, 4051 kPa	0.0425
375.43 K, 4280 kPa	0.0596
375.43 K, 4292 kPa	0.0588
375.45 K, 4349 kPa	0.0567
375.46 K, 4029 kPa	0.0397
375.46 K, 4107 kPa	0.0545
375.46 K, 4118 kPa	0.0591
375.46 K, 4473 kPa	0.0555
375.46 K, 4527 kPa	0.055
375.46 K, 4625 kPa	0.055
375.46 K, 4681 kPa	0.0552
375.46 K, 4735 kPa	0.0582
375.48 K, 4848 kPa	0.0566
375.49 K, 4097 kPa	0.0508
375.51 K, 4107 kPa	0.0521
375.52 K, 4086 kPa	0.0475
375.53 K, 4097 kPa	0.0492
375.56 K, 4055 kPa	0.0434
375.58 K, 4040 kPa	0.0421
375.59 K, 3196 kPa	0.0287
375.6 K, 4065 kPa	0.0432
375.61 K, 3999 kPa	0.0395
375.61 K, 4059 kPa	0.0425
375.63 K, 3965 kPa	0.0378
375.65 K, 4023 kPa	0.0393
375.66 K, 3917 kPa	0.0361
375.69 K, 3874 kPa	0.0343
375.72 K, 4178 kPa	0.0857
375.72 K, 4187 kPa	0.0881
375.73 K, 3772 kPa	0.0319
375.73 K, 4179 kPa	0.083
375.73 K, 4199 kPa	0.0841
375.74 K, 4210 kPa	0.0799
375.76 K, 3000 kPa	0.0274
375.76 K, 3658 kPa	0.0306
375.76 K, 4161 kPa	0.0752
